Tests used:
Assay type in all cases: in vivo
[1] = tested on: barnyardgrass (Echinochloa crus-galli); test: Test B flooded paddy test; conditions: Echinochloa crus-galli, 250 g ai/ha, Flood; 0 to 100 scale where 0 is no effect and 100 is complete control; read-out: Barnyardgrass plant response rating
Method in brief: (§1)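 Plants at 2-leaf stage flooded to 3 cm above soil, with compounds applied directly to paddy water and that depth maintained. Plants kept in greenhouse 13–15 d. Visual rating versus controls on a 0 (no effect) to 100 (complete control) scale.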

[2] = tested on: ducksalad (Heteranthera limosa); test: Test B flooded paddy test; conditions: Heteranthera limosa, 250 g ai/ha, Flood; 0 to 100 scale where 0 is no effect and 100 is complete control; read-out: Ducksalad plant response rating
Method in brief: as §1

[3] = tested on: rice (Oryra sativa); test: Test B flooded paddy test; conditions: Oryza sativa, 250 g ai/ha, Flood; 0 to 100 scale where 0 is no effect and 100 is complete control; read-out: Rice plant response rating
Method in brief: as §1

[4] = tested on: sedge, umbrella (small-flower umbrella sedge, Cyperus difformis); test: Test B flooded paddy test; conditions: Cyperus difformis, 250 g ai/ha, Flood; 0 to 100 scale where 0 is no effect and 100 is complete control; read-out: Sedge, Umbrella plant response rating
Method in brief: as §1

[5] = tested on: wheat (Triticum aestivum); test: Test A postemergence; conditions: Triticum aestivum, post-emergence, 240 h
Method in brief: (§2)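 Seeded soil received test chemicals as a preemergence directed spray, and seedlings at one to two leaves, 2–10 cm tall, received them postemergence, in a non-phytotoxic, surfactant-containing solvent mixture. Pots were held in a greenhouse for approximately 10 d, then rated for injury from 0, no effect, to 100, complete control.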

[6] = tested on: Kochia (Kochia scoparia); test: Test A postemergence; conditions: Bassia scoparia, post-emergence, 240 h
Method in brief: as §2

[7] = tested on: ryegrass, Italian (Italian ryegrass, Lolium multiflorum); test: Test A postemergence; conditions: Lolium multiflorum, post-emergence, 240 h
Method in brief: as §2

[8] = tested on: Galium (catchweed bedstraw, Galium aparine); test: Test A postemergence; conditions: Galium, post-emergence, 240 h
Method in brief: as §2

[9] = tested on: giant foxtail (Setaria faberii); test: Test A postemergence; conditions: Setaria faberi, post-emergence, 240 h
Method in brief: as §2

[10] = tested on: blackgrass (Alopecurus myosuroides); test: Test A postemergence; conditions: Alopecurus myosuroides, post-emergence, 240 h
Method in brief: as §2

[11] = tested on: pigweed (Amaranthus retroflexus); test: Test A postemergence; conditions: Amaranthus retroflexus, post-emergence, 240 h
Method in brief: as §2

[12] = tested on: barnyardgrass (Echinochloa crus-galli); test: Test A postemergence; conditions: Echinochloa crus-galli, post-emergence, 240 h
Method in brief: as §2

[13] = tested on: corn (Zea mays); test: Test A postemergence; conditions: Zea mays, post-emergence, 240 h
Method in brief: as §2

[14] = tested on: ragweed (common ragweed, Ambrosia elatior); test: Test A postemergence; conditions: Ambrosia artemisiifolia, post-emergence, 240 h
Method in brief: as §2

[15] = tested on: Kochia (Kochia scoparia); test: Test A preemergence; conditions: Bassia scoparia, pre-emergence, 240 h, 0 to 100 scale where 0 is no effect and 100 is complete control, read-out: Kochia plant response rating
Method in brief: as §2

[16] = tested on: ryegrass, Italian (Italian ryegrass, Lolium multiflorum); test: Test A preemergence; conditions: Lolium multiflorum, pre-emergence, 240 h, 0 to 100 scale where 0 is no effect and 100 is complete control, read-out: Ryegrass, Italian plant response rating
Method in brief: as §2

[17] = tested on: giant foxtail (Setaria faberii); test: Test A preemergence; conditions: Setaria faberi, pre-emergence, 240 h, 0 to 100 scale where 0 is no effect and 100 is complete control, read-out: Foxtail, Giant plant response rating
Method in brief: as §2

[18] = tested on: pigweed (Amaranthus retroflexus); test: Test A preemergence; conditions: Amaranthus retroflexus, pre-emergence, 240 h, 0 to 100 scale where 0 is no effect and 100 is complete control, read-out: Pigweed plant response rating
[19] = tested on: barnyardgrass (Echinochloa crus-galli); test: Test A preemergence; conditions: Echinochloa crus-galli, pre-emergence, 240 h, 0 to 100 scale where 0 is no effect and 100 is complete control, read-out: Barnyardgrass plant response rating
Method in brief: as §2

[20] = tested on: ragweed (common ragweed, Ambrosia elatior); test: Test A preemergence; conditions: Ambrosia artemisiifolia, pre-emergence, 240 h, 0 to 100 scale where 0 is no effect and 100 is complete control, read-out: Ragweed plant response rating
Method in brief: as §2

[21] = 125 g ai/ha, preemergence, approx. 10 d

Molecule `CN1CC(c2cccc(C(F)(F)F)c2)C(C(=O)Nc2ccccc2CO)C1=O` (stereo not drawn) [Compound 1145] has a pest or weed control at 250 g/ha [1] of 75%, a pest or weed control at 250 g/ha [2] of 60% and a pest or weed control at 250 g/ha [3] of 30%. It also gave a pest or weed control at 250 g/ha [4] of 40%, a plant injury at 125 g/ha ([5]; 125 g ai/ha, postemergence, visual injury vs untreated controls after approx. 10 d, 0 = no effect, 100 = complete control, read-out: Wheat plant response rating (0 to 100 scale)) of 40% and a plant injury at 31 g/ha ([5]; Postemergence, 31 g ai/ha, visual injury after approx. 10 d, 0 to 100 scale, 0 no effect, 100 complete control, read-out: Plant response rating, Wheat) of 0%. It also gave a pest or weed control at 125 g/ha ([6]; 125 g ai/ha, postemergence, visual injury on 0 to 100 scale (0 no effect, 100 complete control), approx. 10 d, read-out: Kochia plant response rating) of 0%, a pest or weed control at 31 g/ha ([6]; Postemergence, 31 g ai/ha, visual injury after approx. 10 d, 0 to 100 scale, 0 no effect, 100 complete control, read-out: Plant response rating, Kochia) of 0% and a pest or weed control at 125 g/ha ([7]; 125 g ai/ha, postemergence, visual injury vs untreated controls after approx. 10 d, 0 = no effect, 100 = complete control, read-out: Ryegrass, Italian plant response rating (0 to 100 scale)) of 20%. It also gave a pest or weed control at 31 g/ha ([7]; Postemergence, 31 g ai/ha, visual injury after approx. 10 d, 0 to 100 scale, 0 no effect, 100 complete control, read-out: Plant response rating, Ryegrass, Italian) of 0%, a pest or weed control at 125 g/ha ([8]; 125 g ai/ha, postemergence, visual injury on 0 to 100 scale (0 no effect, 100 complete control), approx. 10 d, read-out: Galium plant response rating) of 0% and a pest or weed control at 31 g/ha ([8]; Postemergence, 31 g ai/ha, visual injury after approx. 10 d, 0 to 100 scale, 0 no effect, 100 complete control, read-out: Plant response rating, Galium) of 0%. For the same molecule, the pest or weed control at 125 g/ha ([9]; 125 g ai/ha, postemergence, visual injury on 0 to 100 scale (0 no effect, 100 complete control), approx. 10 d, read-out: Foxtail, Giant plant response rating) was 90%, the pest or weed control at 31 g/ha ([9]; Postemergence, 31 g ai/ha, visual injury after approx. 10 d, 0 to 100 scale, 0 no effect, 100 complete control, read-out: Plant response rating, Foxtail, Giant) was 50% and the pest or weed control at 125 g/ha ([10]; 125 g ai/ha, postemergence, visual injury on 0 to 100 scale (0 no effect, 100 complete control), approx. 10 d, read-out: Blackgrass plant response rating) was 50%. The pest or weed control at 31 g/ha ([10]; Postemergence, 31 g ai/ha, visual injury after approx. 10 d, 0 to 100 scale, 0 no effect, 100 complete control, read-out: Plant response rating, Blackgrass) was 0%, the pest or weed control at 125 g/ha ([11]; 125 g ai/ha, postemergence, visual injury vs untreated controls after approx. 10 d, 0 = no effect, 100 = complete control, read-out: Pigweed plant response rating (0 to 100 scale)) was 0% and the pest or weed control at 31 g/ha ([11]; Postemergence, 31 g ai/ha, visual injury after approx. 10 d, 0 to 100 scale, 0 no effect, 100 complete control, read-out: Plant response rating, Pigweed) was 0%. The pest or weed control at 125 g/ha ([12]; 125 g ai/ha, postemergence, visual injury on 0 to 100 scale (0 no effect, 100 complete control), approx. 10 d, read-out: Barnyardgrass plant response rating) was 80%, the pest or weed control at 31 g/ha ([12]; Postemergence, 31 g ai/ha, visual injury after approx. 10 d, 0 to 100 scale, 0 no effect, 100 complete control, read-out: Plant response rating, Barnyardgrass) was 60% and the plant injury at 125 g/ha ([13]; 125 g ai/ha, postemergence, visual injury on 0 to 100 scale (0 no effect, 100 complete control), approx. 10 d, read-out: Corn plant response rating) was 50%. It also gave a Corn plant response rating (crop injury, 0 = no effect, 100 = complete kill) at 31 g/ha ([13]; Postemergence, 31 g ai/ha, visual injury after approx. 10 d, 0 to 100 scale, 0 no effect, 100 complete control) of 0%, a pest or weed control at 125 g/ha ([14]; 125 g ai/ha, postemergence, visual injury vs untreated controls after approx. 10 d, 0 = no effect, 100 = complete control, read-out: Ragweed plant response rating (0 to 100 scale)) of 0% and a pest or weed control at 31 g/ha ([14]; Postemergence, 31 g ai/ha, visual injury after approx. 10 d, 0 to 100 scale, 0 no effect, 100 complete control, read-out: Plant response rating, Ragweed) of 0%. For the same molecule, the pest or weed control at 31 g/ha ([15]; 31 g ai/ha, Preemergence) was 0%, the pest or weed control at 125 g/ha [15, 21] was 50% and the pest or weed control at 31 g/ha ([16]; 31 g ai/ha, Preemergence) was 0%. For the same molecule, the pest or weed control at 125 g/ha [16, 21] was 30%, the pest or weed control at 31 g/ha ([17]; 31 g ai/ha, Preemergence) was 90% and the pest or weed control at 125 g/ha [17, 21] was 90%. The pest or weed control at 31 g/ha ([18]; 31 g ai/ha, Preemergence) was 0%, the pest or weed control at 125 g/ha [18, 21] was 0% and the pest or weed control at 31 g/ha ([19]; 31 g ai/ha, Preemergence) was 80%. For the same molecule, the pest or weed control at 125 g/ha [19, 21] was 90%, the pest or weed control at 31 g/ha ([20]; 31 g ai/ha, Preemergence) was 0% and the pest or weed control at 125 g/ha [20, 21] was 0%.
